Measurements as given in ChEMBL document CHEMBL3301361, “Experimental in vitro DMPK and physicochemical data on a set of publicly disclosed compounds”.
Converted amounts (≈) assume the structure as drawn.

How the values were obtained:
in vitro [1] = conditions: hepatocytes
in vitro [2] = conditions: human, plasma
physchem [3] = conditions: pH 7.4 buffer
in vitro [4] = conditions: SD, HW or BN, rat, plasma
physchem [5] = conditions: octan-1-ol/water
in vitro [6] = conditions: human

Structure (SMILES) | fraction unbound at 5 h (in vitro [2]; PPB) | fraction unbound at 5 h (in vitro [4]) | logD (physchem [5]; pH 7.4, LogD7.4) | further results
CCC1(CCC(C)C)C(=O)NC(=O)NC1=O [AMOBARBITAL] |  |  |  | hepatocyte CLint (in vitro [1]): 11.8 µL/min/1e6 cells
c1ccc(Nc2nc3c(s2)CCCc2[nH]ncc2-3)nc1 |  |  |  | hepatocyte CLint (in vitro [1]): 36.3 µL/min/1e6 cells
O=C(c1ccc(O)cc1O)N1CCCC1 |  |  |  | hepatocyte CLint (in vitro [1]): > 150 µL/min/1e6 cells
CC(C)N1C(=O)[C@H](NC(=O)[C@@H](Cc2ccccc2OC(F)(F)F)NC(=O)OC(C)(C)C)CCc2ccccc21 | 0.003 | 0.003 |  | solubility thermodynamic (physchem [3]): 5 µM (≈ 2.75 µg/mL)
CCOC(=O)Nc1ccc(NCc2ccc(F)cc2)nc1N [FLUPIRTINE] | 0.16 | 0.22 | 2.22 | 
COC[C@@H](O)Cn1c(=O)cnn(-c2ccc(Cl)c(C(=O)NCC3(O)CCCCCC3)c2)c1=O | 0.586 | 0.608 | 1.44 | 
Cc1ccsc1C(=CCCN1CCC[C@@H](C(=O)O)C1)c1sccc1C [TIAGABINE] | 0.051 | 0.0836 | 1.49 | 
Fc1ccc([C@@H]2CCNC[C@H]2COc2ccc3c(c2)OCO3)cc1 [PAROXETINE] | 0.101 | 0.0532 | 1.78 | 
O=c1cc(-c2ccc(Br)cc2)oc2ccccc12 |  |  |  | hepatocyte CLint (in vitro [1]): < 3 µL/min/1e6 cells
Cc1cn([C@H]2CCCN([C@H](CC3CCCCC3)c3ccc(C(=O)O)c(Oc4cccc(Cl)c4)c3)C2)c(=O)[nH]c1=O |  |  |  | hepatocyte CLint (in vitro [1]): 42.7 µL/min/1e6 cells
COc1cc2nccc(Oc3ccc(NC(=O)C4(C(=O)Nc5ccc(F)cc5)CC4)cc3)c2cc1OC [CABOZANTINIB] |  |  |  | hepatocyte CLint (in vitro [1]): 3.16 µL/min/1e6 cells
Cc1ccccc1CN1CCC(N2CCC(n3c(=O)[nH]c4ccccc43)CC2)CC1 |  | 0.299 |  | fraction unbound at 5 h (in vitro [2]): 0.355; logD (physchem [5]; pH 7.4): 2.68
N[C@@H](C(=O)N[C@@H]1C(=O)N2C(C(=O)O)=C(Cl)CC[C@H]12)c1ccccc1 [LORACARBEF ANHYDROUS] |  |  |  | hepatocyte CLint (in vitro [1]): < 3 µL/min/1e6 cells
COc1ccccc1CN(C(C)=O)c1cnccc1Oc1ccccc1 | 0.069 | 0.101 | 3 | 
COc1cc(C)c(S(=O)(=O)N(C)CCOCC(=O)N2CCC(C3CCN(C)CC3)CC2)c(C)c1 | 0.483 | 0.511 | 0.3 | 
CN(C)CCOc1cc(NS(=O)(=O)c2c(Cl)cc(C(F)(F)F)cc2Cl)ccc1Cl [SB611812] | 0.0029 | 0.0024 | 2.99 | 
CCn1nc(C)c(C(=O)N[C@@H](C)C(C)(C)C)c1NS(=O)(=O)c1ccc(C)cc1 | 0.0163 | 0.0477 | 0.95 | 
C[C@@H]1CN(c2ccc3c(n2)NC(=O)CO3)[C@H](c2ccccc2)CO1 | 0.0633 | 0.0928 | 2.75 | 
Oc1nc2c(O)ccc(CCNCCCSCCOCCc3cccc4ccccc34)c2s1 |  | 0.0122 |  | microsomal CLint (in vitro [6]; liver microsomes): 36 µL/min/mg
N#C[C@@]1(NC(=O)[C@@H](N)Cc2cccs2)C[C@@H]1c1ccccc1 | 0.46 | 0.344 | 1.3 | 
Cc1ccc(Sc2ccccc2CN(C)C)c(N)c1 | 0.11 | 0.0928 | 2.6 | 
CN(C)C(=O)[C@H](O)[C@H](Cc1ccccc1)NC(=O)c1cc2cc(Cl)ccc2[nH]1 | 0.0219 | 0.0268 | 3.6 | solubility thermodynamic (physchem [3]): 22.9 µM (≈ 9.16 µg/mL)
CCN(CC)S(=O)(=O)c1ccc(-c2cc(C(F)(F)F)ccc2OCC(=O)O)cc1 | 0.0122 | 0.0179 | 0.67 | 
NC(=O)c1cc(C(N)=O)n(-c2cccc(-c3cc(C(F)(F)F)ccc3C(F)(F)F)c2)n1 | 0.0328 | 0.0568 | 3.4 | 
O=C(NCc1ccc(OC(F)(F)F)cc1)C1c2ccccc2C(=O)N1C1CCOCC1 (configuration not stated) | 0.0948 | 0.132 |  | solubility thermodynamic (physchem [3]): 83.2 µM (≈ 36.1 µg/mL)

Structure (SMILES) | fraction unbound at 5 h (in vitro [2]; PPB) | fraction unbound at 5 h (in vitro [4]) | logD (physchem [5]; pH 7.4, LogD7.4) | further results
CC(C(=O)O)c1cccc(Oc2ccccc2)c1 (configuration not stated) [FENOPROFEN] |  | 0.0146 | 0.71 | microsomal CLint (in vitro [6]; liver microsomes): 10.2 µL/min/mg
OCCN1CCN(CCCN2c3ccccc3Sc3ccc(C(F)(F)F)cc32)CC1 [FLUPHENAZINE] |  | 0.0119 |  | fraction unbound at 5 h (in vitro [2]): 0.0119; logD (physchem [5]; pH 7.4): 3.8
CN(C(=O)Cc1ccc(-n2cnnn2)cc1)C1CCN(Cc2ccc(C(F)(F)F)cc2)CC1 | 0.0872 | 0.0606 |  | solubility thermodynamic (physchem [3]): 17.8 µM (≈ 8.16 µg/mL)
Cc1cc2c(s1)Nc1ccccc1N=C2N1CCN(C)CC1 [OLANZAPINE] |  | 0.124 |  | fraction unbound at 5 h (in vitro [2]): 0.107; logD (physchem [5]; pH 7.4): 2.19
Cc1ccc(S(=O)(=O)Nc2c(C(=O)N[C@@H](C)C(C)(C)C)c(C)nn2C2CCC2)cc1 | 0.0183 | 0.0209 | 1.57 | microsomal CLint (in vitro [6]; microsomes): 11 µL/min/mg
CC1(C)CNC(=O)c2sc(N3CCOCC3)nc2C1 | 0.701 | 0.517 | 1.29 | solubility thermodynamic (physchem [3]): 251 µM (≈ 70.7 µg/mL)
O=C(NCCc1ccccc1)c1cc(-n2ncc(=O)[nH]c2=O)ccc1Cl | 0.0251 | 0.0391 | 0.74 | microsomal CLint (in vitro [6]; liver microsomes): < 3 µL/min/mg
CN[C@H]1CC[C@@H](c2ccc(Cl)c(Cl)c2)c2ccccc21 [SERTRALINE] | 0.0146 | 0.02 | 3.15 | 
CCN1CCC[C@H]1CNC(=O)c1cc(Br)cc(OC)c1OC | 0.54 | 0.701 | 1.2 | 
Cc1nn(-c2ccccc2)c(NS(=O)(=O)C2CCCCC2)c1C(=O)N[C@@H](C)C(C)(C)C | 0.0149 | 0.0163 | 1.75 | solubility thermodynamic (physchem [3]): 398 µM (≈ 178 µg/mL)
CN1CCc2cc(Cl)c(O)cc2[C@@H](c2ccccc2)C1 [SCH-23390] | 0.0801 | 0.17 | 2.5 | 
Clc1ccc2c(c1)C(N1CCNCC1)=Nc1ccccc1O2 [AMOXAPINE] | 0.11 | 0.101 | 2.28 | 
Cc1c(Sc2ccc(Cl)cc2)c2c(-c3cnccn3)cccc2n1CC(=O)O | 0.0124 | 0.024 | 0.03 | microsomal CLint (in vitro [6]; microsomes): 8 µL/min/mg
CCc1nc(N)nc(N)c1-c1ccc(Cl)cc1 [PYRIMETHAMINE] | 0.0736 | 0.069 | 2.31 | 
Cn1cc[nH]c1=S [METHIMAZOLE] | 0.81 | 0.814 | -0.42 | 
O=c1n(CCCN2CCN(c3cccc(Cl)c3)CC2)nc2ccccn12 [TRAZODONE] |  | 0.124 | 2.67 | fraction unbound at 5 h (in vitro [2]): 0.03; solubility thermodynamic (physchem [3]): 891 µM (≈ 331 µg/mL)
CN(C)CCC=C1c2ccccc2C=Cc2ccccc21 [CYCLOBENZAPRINE] | 0.0784 | 0.117 | 2.83 | microsomal CLint (in vitro [6]; microsomes): 4.07 µL/min/mg
O=C1NC(=O)C(c2ccccc2)(c2ccccc2)N1 [PHENYTOIN] | 0.129 | 0.179 | 2.41 | solubility thermodynamic (physchem [3]): 79.4 µM (≈ 20 µg/mL)
CC(C)Oc1cc(Nc2nc(N[C@@H](C)c3ccc(F)cn3)nc(OC(CO)CO)c2Cl)n[nH]1 | 0.176 | 0.173 | 2.77 | 
C[C@H]([C@H](O)c1ccc(O)cc1)N1CCC(O)(c2ccccc2)CC1 | 0.681 | 0.608 | 0.91 | 
COc1ccccc1O[C@@H](c1ccccc1)[C@@H]1CNCCO1 | 0.309 | 0.768 | 0.9 | 
Cc1nc(C)c(-c2ccc([C@H]3CC[C@H](CC(N)=O)CC3)cc2)nc1C(N)=O | 0.129 | 0.0556 | 2.7 | 
CNCCCC12CCC(c3ccccc31)c1ccccc12 [MAPROTILINE] | 0.126 | 0.0784 | 0.89 | 
Cc1cnc(-c2c(F)ccc(F)c2CCNC(=O)c2ccc(COCC(F)(F)F)nc2)cn1 | 0.0801 | 0.28 |  | 
O=C(O)CNC(=O)c1ncccc1O | 0.232 | 0.24 |  | 
